Structures are written as SMILES.

For data set [1], the system named is INI1-deleted malignant rhabdoid tumor (MRT) models. The experiment in a line: INI1-deleted malignant rhabdoid tumor (MRT) models in vitro. The class given is cell-based.
Another data set relates to MRT xenograft. The experiment in a line: MRT xenograft-bearing mice. The class given is in vivo.
The nature of the next data set: oral bioavailability. As to conditions: in vivo.

For the molecule `CCN(c1cc(-c2ccc(CN3CCOCC3)cc2)cc(C(=O)NCc2c(C)cc(C)[nH]c2=O)c1C)C1CCOCC1` [EPZ-6438], the apoptosis and differentiation entry in data set [1] is “induce apoptosis and differentiation”; in the data set on MRT xenograft, “induce apoptosis and differentiation”. In “oral bioavailability”, the oral bioavailability result is given as “orally bioavailable”.

The record behind these values is patent US11642349B2, “Method for treating cancer” (Epizyme, Inc., priority 2015, dated 2023).
